From patent US5166146A, “Amino acid cyclopentanophenonthrene compounds” (Roussel Uclaf, priority 1989, dated 1992)
Where a name gives a salt, the structure may show the parent alone.

How the values were obtained:
[1] = molecular target: T1, Progesterone receptor of rabbit's uterus (Oryctolagus cuniculus, UniProt P06186); experiment: Relative bond affinity, progesterone receptor of rabbit's uterus (tritiated R 5020 displacement); format: binding; conditions: progesterone = 100
T1 construct: The uteruses were removed, weighed and homogenised at 0° C; from tissue; host or cells: uterus cytosol (105,000 g supernatant) of estradiol-primed impuberal female rabbits
T1 sequence (P06186 1-930): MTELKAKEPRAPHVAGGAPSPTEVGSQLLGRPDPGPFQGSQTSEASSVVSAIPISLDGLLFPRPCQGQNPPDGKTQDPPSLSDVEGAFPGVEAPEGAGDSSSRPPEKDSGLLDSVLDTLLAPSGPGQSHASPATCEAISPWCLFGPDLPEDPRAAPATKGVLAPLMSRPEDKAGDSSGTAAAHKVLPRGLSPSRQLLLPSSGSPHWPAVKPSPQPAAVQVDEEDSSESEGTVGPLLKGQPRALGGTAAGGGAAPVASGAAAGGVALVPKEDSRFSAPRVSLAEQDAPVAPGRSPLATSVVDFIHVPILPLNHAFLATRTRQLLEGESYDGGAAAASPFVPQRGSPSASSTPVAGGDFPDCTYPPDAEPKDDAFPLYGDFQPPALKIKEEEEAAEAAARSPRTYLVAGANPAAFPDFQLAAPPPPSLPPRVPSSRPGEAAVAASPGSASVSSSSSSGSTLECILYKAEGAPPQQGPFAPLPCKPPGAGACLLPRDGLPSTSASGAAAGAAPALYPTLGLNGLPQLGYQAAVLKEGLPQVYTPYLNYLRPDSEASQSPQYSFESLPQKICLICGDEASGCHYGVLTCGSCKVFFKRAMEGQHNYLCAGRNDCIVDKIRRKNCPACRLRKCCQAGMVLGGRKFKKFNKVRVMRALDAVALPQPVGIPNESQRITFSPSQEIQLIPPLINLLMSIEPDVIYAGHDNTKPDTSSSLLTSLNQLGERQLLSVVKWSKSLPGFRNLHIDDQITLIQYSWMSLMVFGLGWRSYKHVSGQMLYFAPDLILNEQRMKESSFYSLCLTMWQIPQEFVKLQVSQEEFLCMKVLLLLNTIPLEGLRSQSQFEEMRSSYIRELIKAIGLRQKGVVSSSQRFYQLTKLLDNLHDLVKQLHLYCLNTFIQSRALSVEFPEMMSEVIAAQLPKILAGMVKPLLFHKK
Experimental: Impuberal female rabbits weighing about 1 kg received a cutaneous application of 25 μg of estradiol and five days after this treatment, the animals were killed. The uteruses were removed, weighed and homogenised at 0° C. using a Potter teflon-flask ina (TS) 10 mM Tris, 0.25M saccharose, HCl pH 7.4 buffer (1 g of tissue per 50 ml of TS). The homogenate was ultra-centrifuged at 105,000 g×90 mn at 0° C. and aliquots of the supernatant or "cytosol", were incubated at 0° C. for 2 hours and 24 hours with a constant concentration (T=5 nm) of tritiated R 5020 (17,21-dimethyl-19-nor-Δ^4,9 -pregnadien-3, 20-dione, strongly progrestomimetic mimetic having a great affinity for the progesterone receptor), in the presence of increasing concentrations (0-2500 nM) of cold progesterone, or of the product under test. The concentration of bonded tritiated R 5020 (B) was measured in each incubate by the technique of adsorption with carbon-dextran. […]
(§1) The straight line of the equation: [formula] was determined. […]
(§2) The intersections of the straight line I50 and the curves allow the evaluation of the concentrations of the cold reference hormone (CH) and of the cold product under test (CX) which inhibit by 50% the bonding of the tritiated hormone on the receptor. The relative bond affinity (RBA) of the product under test was determined by the equation RBA=100 (CH)/(CX)

[2] = molecular target: T2, Glucocorticoid receptor of rat's thymus (Rattus norvegicus, UniProt P06536); experiment: Relative bond affinity, glucocorticoid receptor of rat's thymus (tritiated dexamethasone displacement); format: binding; conditions: dexamethasone = 100
T2 construct: The thymuses were removed and homogenized at 0° C; from tissue; host or cells: thymus cytosol (105,000 g supernatant) of adrenalectomized male rats
T2 sequence (P06536 1-795): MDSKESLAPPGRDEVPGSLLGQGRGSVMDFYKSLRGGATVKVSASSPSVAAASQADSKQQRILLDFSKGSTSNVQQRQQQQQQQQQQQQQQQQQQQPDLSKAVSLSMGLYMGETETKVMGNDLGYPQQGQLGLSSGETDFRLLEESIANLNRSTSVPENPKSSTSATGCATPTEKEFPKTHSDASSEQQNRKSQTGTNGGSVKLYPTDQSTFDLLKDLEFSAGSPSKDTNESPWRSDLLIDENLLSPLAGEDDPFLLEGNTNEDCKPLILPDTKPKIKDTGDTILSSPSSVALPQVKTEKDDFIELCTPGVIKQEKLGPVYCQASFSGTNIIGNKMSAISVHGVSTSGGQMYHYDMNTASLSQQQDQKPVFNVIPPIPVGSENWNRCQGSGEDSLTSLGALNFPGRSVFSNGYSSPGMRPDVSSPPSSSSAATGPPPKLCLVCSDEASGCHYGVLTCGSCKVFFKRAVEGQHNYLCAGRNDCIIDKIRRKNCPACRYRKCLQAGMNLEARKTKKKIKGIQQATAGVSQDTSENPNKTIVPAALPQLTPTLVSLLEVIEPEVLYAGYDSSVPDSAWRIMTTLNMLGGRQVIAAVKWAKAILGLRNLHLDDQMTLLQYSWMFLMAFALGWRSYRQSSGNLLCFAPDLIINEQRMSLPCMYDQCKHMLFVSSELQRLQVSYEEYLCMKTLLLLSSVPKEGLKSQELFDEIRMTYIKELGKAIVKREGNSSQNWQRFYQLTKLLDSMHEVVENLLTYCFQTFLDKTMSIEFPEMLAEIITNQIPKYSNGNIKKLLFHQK
Experimental: Male rats weighing 160 to 200 g were suprarenalectomized and 4 to 8 days after this removal, the animals were killed. The thymuses were removed and homogenized at 0° C. using a Potter teflon-flask in a (TSD) 10 mM Tris, 0.25M saccharose, 2mM dithiothreitol, HCl, pH 7.4 buffer (1 g of tissue per 10 ml of TSD). The homogenate was ultracentrifuged at 105,000 g×90 mn at 0° C. and aliquots of the supernatant or "cystosol" were incubated at 0° C. for 4 hours and 24 hours with constant concentration (T=2.5 nM) of tritiated dexamethasone in the presence of increasing concentrations (0-2,500 nM) of cold dexamethasone or of the cold product under test. The concentration of the bonded tritiated dexamethasone (B) was then measured in each incubate by the technique of adsorption with carbon-dextran.
(§3) The calculation of the relative bond affinity (RBA) was identical for all receptors. […]
as §1, §2

[3] = molecular target: T3, Androgen receptor of rat's prostate (Rattus norvegicus, UniProt P15207); experiment: Relative bond affinity, androgen receptor of rat's prostate (tritiated testosterone displacement); format: binding; conditions: testosterone = 100
T3 construct: The prostates were removed, weighed and homogenized at 0° C; from tissue; host or cells: prostate cytosol (105,000 g supernatant) of castrated male rats
T3 sequence (P15207 1-902): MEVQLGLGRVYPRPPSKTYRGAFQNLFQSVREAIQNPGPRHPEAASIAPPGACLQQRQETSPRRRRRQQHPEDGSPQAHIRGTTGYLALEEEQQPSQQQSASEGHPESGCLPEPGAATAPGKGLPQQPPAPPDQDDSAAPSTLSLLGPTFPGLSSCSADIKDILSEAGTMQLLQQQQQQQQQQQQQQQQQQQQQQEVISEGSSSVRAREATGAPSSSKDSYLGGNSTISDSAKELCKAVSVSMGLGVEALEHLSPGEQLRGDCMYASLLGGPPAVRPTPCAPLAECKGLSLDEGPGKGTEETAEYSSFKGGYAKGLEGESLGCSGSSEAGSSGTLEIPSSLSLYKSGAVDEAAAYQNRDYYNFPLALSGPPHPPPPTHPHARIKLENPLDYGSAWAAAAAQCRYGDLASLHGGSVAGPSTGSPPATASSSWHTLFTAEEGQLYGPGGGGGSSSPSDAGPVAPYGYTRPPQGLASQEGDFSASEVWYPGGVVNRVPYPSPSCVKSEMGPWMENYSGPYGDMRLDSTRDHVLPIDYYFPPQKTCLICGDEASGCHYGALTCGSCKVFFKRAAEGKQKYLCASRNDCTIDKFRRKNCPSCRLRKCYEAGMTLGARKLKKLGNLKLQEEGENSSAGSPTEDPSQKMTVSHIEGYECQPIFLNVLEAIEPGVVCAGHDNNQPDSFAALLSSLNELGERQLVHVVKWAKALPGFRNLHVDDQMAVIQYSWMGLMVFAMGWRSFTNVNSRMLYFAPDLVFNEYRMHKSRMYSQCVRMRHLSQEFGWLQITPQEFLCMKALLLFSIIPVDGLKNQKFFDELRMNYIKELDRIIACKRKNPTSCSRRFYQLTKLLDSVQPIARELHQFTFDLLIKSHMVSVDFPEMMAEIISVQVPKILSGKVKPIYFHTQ
Experimental: Male rats weighing of 160 to 200 g were castrated and 24 hours after the castration, the animals were killed. The prostates were removed, weighed and homogenized at 0° C. using a Potter Teflon-flask in a (TSDPM) 10 mM Tris, 0.25 M saccharose, 0.1 mM phenyl methane sulfonyl fluoride, 20 mM molybdate, 2mM dithiothreitol, HCl pH 7.4 buffer (1 g of tissue per 5 ml of TSDPM). The homogenate was ultracentrifuged at 105,000 g×60 mn at 0° C. and aliquots of the supernatant or "cytosol" were incubated at 0° C. with a constant concentration of tritiated testosterone in the presence of increasing concentrations (0-1000 nM) of cold testosterone or of the product under test. […]
as §3, §1, §2

rat thymocytes = experiment: Anti-glucocorticoid activity vis-a-vis dexamethasone: incorporation of uridine in rat thymocytes; format: cell-based
Description: Glucocorticoids cause an inhibition of the incorporation of nucleosides in lymphoid tissue and the measurement of the incorporation of radio-active uridine in the thymocytes in the presence of a product under test allows its glucocorticoid activity to be evaluated.
In accordance with the technique described by Dausse et al (3), the thymus of a suprarenalectomized rat weighing 160 to 180 g was removed, shredded and homogenized slowly using a teflon-flask homogenizer in Hanks solution. The cellular suspension was filtered on gauze, then centrifuged at 800 g×10 mn. A new centrifugation was carried out at 800 g×10 mm and the deposit was suspended in a nutritive medium (M.E.M. Gibco). The cellular concentration was adjusted to approximately 20×10^6 cells per ml and aliquots of 250 μl were incubated under carbogen for 3 hours at 37° C. with 5×10^-8 M of dexamethasone in the presence or not of increasing concentrations of product (10^-8 to 10^-6 M). 0.1 uCi of tritiated uridine was added to each incubate and the incubation was continued for one hour. The incubates were cooled and 1 ml of a cold solution of trichloroacetic acid (TCA) at 5% weight/volume was added. […] The radioactivity retained on the filters (representing the tritiated uridine incorporated in the thymocytes) was measured using a liquid scintillation spectrometer.

- relative bond affinity (RBA) Progesterone 2H ([1]; incubation 2 hours at 0° C.): 22
- relative bond affinity (RBA) Progesterone 24H ([1]; incubation 24 hours at 0° C.): 107
- relative bond affinity (RBA) Glucocorticoid 4H ([2]; incubation 4 hours at 0° C.): 101
- relative bond affinity (RBA) Glucocorticoid 24H ([2]; incubation 24 hours at 0° C.): 129
- relative bond affinity (RBA) Androgen ([3]; incubation (so in the source) at 0° C.): 10,1
- relative bond affinity (RBA) Androgen 0,5H ([3]; incubation half an hour at 0° C.): 2,1
SMILES: CC#C[C@]1(O)CC[C@H]2[C@@H]3CCC4=CC(=O)CCC4=C3[C@@H](c3ccc(N(C)CC(=O)O)cc3)C[C@@]21C [Example 1, Sodium salt of [[4-[17α-(1-propynyl)-Δ^4,9-estradien-17β-ol-3-one-11 β-yl]-phenyl]-methylamino]-acetic acid]
- anti-glucocorticoid activity (statement in words) (rat thymocytes): good anti-glucocorticoid activity
